Patent US20220152044A1, “TREATMENT OF INFLAMMATORY DISEASES OF THE CENTRAL NERVOUS SYSTEM” (PALMAYA PTY LTD, priority 2019, published 2022)
Values joined by “and” are separate entries in the source; they are usually repeats but may differ in a detail not shown here. Equal entries are not always repeated.

Key:
migraine = assay: Treatment of migraine in a person with flumazenil infusion and subcutaneous implants; assay type: in vivo, human
Description: The patient recently presented to our clinic, and was treated with flumazenil given subcutaneously at a rate of 160 micrograms per hour, delivered by a spring driven pump for a continuous period of time. The time that the migraines regularly occurred was the week prior to menstruation.
(§1) The patient was then treated with a subcutaneous implant delivering an estimated 60-80 micrograms per hour of flumazenil (based on water bath release rate testing). The implant was expected to last 8-10 weeks. This prevented the migraines for about 9-10weeks. In the week before the implant was inserted, the patient's blood flumazenil level was noted to be 0.5 ng/ml. The usual expected level for 160 microgram an hour infusions was in the order of 2-3 ng per ml and 1-1.5 ng for 80 microgram per hour infusions.
(§2) This finding that the migraines were stopped for a nine week period of time was amazing to the patient as they had suffered migraines for typically three weeks out of four for all of the years […]. At the end of week 8 on the first implant their blood flumazenil level was recorded as 0.5 ng per ml, which is considered a low level. Within a week another migraine started and the patient presented to the clinic for treatment.
A further subcutaneous implant was inserted and within four hours all symptoms from the migraine had settled. This was most unusual and unexpected as the symptoms following migraines usually persisted many days for this patient.
(§3) This next implant was also delivering an estimated 60-80 micrograms of flumazenil per hour. Evidence of ovulation was confirmed by routine elevation of progesterone during the luteal phase of one of the two cycles during the time of this second implant. Again no migraines occurred during an 8-9 week time of the second implant. Blood levels of flumazenil at 1.2 and 1.3 ng/ml were recorded during the time of the second implant. After 9-10 weeks the patient, presented to a teaching hospital on the weekend with another migraine. They were treated with all the modern treatments for migraines without resolution of the migraine.
A few days later a third implant was inserted. It again was surprising that all symptoms relating to the migraine settled within four hours.

[1] = Blood / plasma flumazenil level in patients; assay type: in vivo, human
Description: In a severe patient population, ondansetron may be given every 6-8 hours to assist in reducing the nausea and associated anxiety symptoms.
as §1, §2, §3

[2] = Water bath release rate testing of flumazenil implant; assay type: physicochemical; settings: based on water bath release rate testing
Description: as §1

HPA axis = HPA axis in stressed animals; assay type: in vivo
Text: For this reason the combination of sustained release naltrexone and sustained release flumazenil using injections, implants or infusions would be expected to limit neuro-inflammatory diseases and their symptoms.

migraine patients = assay: Two migraine patients, follow-up during and after flumazenil delivery; assay type: in vivo, human
Description: Two migraine patients initially described migraine symptoms, are both symptom free for more than a year. No repeat treatments occurred in the second of the migraine patients, and as such, believe that the treatment might be curative in some patients.
In these two patients treated for migraines, the first patient the history of migraines affecting their required an infusion initially, and then flumazenil implants maintaining at least 1 ng per ml of flumazenil to achieve relief of symptoms. In a second patient we noted that the symptom relief has lasted for more than 12 months when treatment with a flumazenil implant lasting an estimated six months occurred.

amphetamine use = assay: Amphetamine / methamphetamine craving and withdrawal; assay type: in vivo, human; settings: methamphetamine patients, flumazenil infusions at 160 μg/hour
Description: In those patients that return 2-3 weeks with extreme anxiety and a desire to return to amphetamine use, the commencement of flumazenil infusions followed by a flumazenil implant that sustains a plasma concentration of flumazenil at 0.5-2 ng/ml or more decreases the cravings, including a decrease in the desire for amphetamines and allows reduction f irritability and aggression.

## CCOC(=O)c1ncn2c1CN(C)C(=O)c1cc(F)ccc1-2 [flumazenil]
migraine; after insertion of the further (second) subcutaneous implant
  time until all symptoms from the migraine had settled: four
migraine; after insertion of the third implant
  time until all symptoms relating to the migraine settled: four
migraine; second implant, estimated 60-80 micrograms flumazenil per hour
  time without migraines: 8-9 week
migraine; subcutaneous infusion 160 micrograms per hour by spring driven pump
  occurrence of migraine at the expected time (week prior to menstruation): did not occur
[1]; 80 microgram per hour infusions
  usual expected blood flumazenil level: 1 to 1.5 ng
[1]; 160 microgram an hour infusions
  usual expected blood flumazenil level: 2-3 ng per ml
[1]; human, blood, subcutaneous, migraine patient, end of week 8 on the first implant
  concentration at 8 weeks: 0.5 ng/mL
[1]; migraine patient, during the time of the second implant
  blood levels of flumazenil: 1.2 ng/mL and 1.3 ng/mL
[1]; migraine patient, in the week before the implant was inserted
  blood flumazenil level: 0.5 ng/mL
[2]
  estimated delivery rate of flumazenil from subcutaneous implant: 60-80 micrograms per hour
HPA axis
  return of the HPA axis to normal: help return the HPA axis
Migraine patients; first migraine patient, infusion initially then implants
  flumazenil level maintained by implants to achieve relief of symptoms: at least 1 ng per ml
Migraine patients; second patient, flumazenil implant lasting an estimated six months, no repeat treatment
  duration of symptom relief: more than 12 months
Migraine patients; two migraine patients
  symptom free period: more than a year
Amphetamine use
  severe withdrawal symptoms including psychosis or extreme anxiety: prevent these symptoms
